Test results taken from ChEMBL document CHEMBL2380302, “Synthesis of 3-O-propargylated betulinic acid and its 1,2,3-triazoles as potential apoptotic agents” (Eur J Med Chem, 2013).

How the values were obtained:
[1] = system: DU-145; assay: Cytotoxicity against human DU145 cells at 50 uM after 48 hrs by SRB assay; assay type: functional; conditions: DU-145, 48 h, read-out: GI
[2] = system: HL-60; assay: Cytotoxicity against human HL60 cells at 10 uM after 48 hrs by SRB assay; assay type: functional; conditions: HL-60, 48 h, read-out: GI
[3] = system: A549; assay: Cytotoxicity against human A549 cells at 50 uM after 48 hrs by SRB assay; assay type: functional; conditions: A549, 48 h, read-out: GI
[4] = system: HCT-15; assay: Cytotoxicity against human HCT15 cells at 10 uM after 48 hrs by SRB assay; assay type: functional; conditions: HCT-15, 48 h, read-out: GI
[5] = system: SF-295; assay: Cytotoxicity against human SF295 cells after 48 hrs by SRB assay; assay type: functional, cell-based; conditions: SF-295, 48 h
[6] = system: HCT-15; assay: Cytotoxicity against human HCT15 cells after 48 hrs by SRB assay; assay type: functional, cell-based; conditions: HCT-15, 48 h
[7] = system: MCF7; assay: Cytotoxicity against human MCF7 cells at 30 uM after 48 hrs by SRB assay; assay type: functional; conditions: MCF7, 48 h, read-out: GI
[8] = system: A549; assay: Cytotoxicity against human A549 cells at 10 uM after 48 hrs by SRB assay; assay type: functional; conditions: A549, 48 h, read-out: GI
[9] = system: HL-60; assay: Cytotoxicity against human HL60 cells at 30 uM after 48 hrs by SRB assay; assay type: functional; conditions: HL-60, 48 h, read-out: GI
[10] = system: HCT-15; assay: Cytotoxicity against human HCT15 cells at 50 uM after 48 hrs by SRB assay; assay type: functional; conditions: HCT-15, 48 h, read-out: GI
[11] = system: DU-145; assay: Cytotoxicity against human DU145 cells after 48 hrs by SRB assay; assay type: functional, cell-based; conditions: DU-145, 48 h
[12] = system: MCF7; assay: Cytotoxicity against human MCF7 cells after 48 hrs by SRB assay; assay type: functional, cell-based; conditions: MCF7, 48 h
[13] = system: DU-145; assay: Cytotoxicity against human DU145 cells at 10 uM after 48 hrs by SRB assay; assay type: functional; conditions: DU-145, 48 h, read-out: GI
[14] = system: PC-3; assay: Cytotoxicity against human PC3 cells at 50 uM after 48 hrs by SRB assay; assay type: functional; conditions: PC-3, 48 h, read-out: GI
[15] = system: PC-3; assay: Cytotoxicity against human PC3 cells at 10 uM after 48 hrs by SRB assay; assay type: functional; conditions: PC-3, 48 h, read-out: GI
[16] = system: THP-1; assay: Cytotoxicity against human THP1 cells at 10 uM after 48 hrs by SRB assay; assay type: functional; conditions: THP-1, 48 h, read-out: GI
[17] = system: THP-1; assay: Cytotoxicity against human THP1 cells at 30 uM after 48 hrs by SRB assay; assay type: functional; conditions: THP-1, 48 h, read-out: GI
[18] = system: HL-60; assay: Cytotoxicity against human HL60 cells after 48 hrs by SRB assay; assay type: functional, cell-based; conditions: HL-60, 48 h
[19] = system: DU-145; assay: Cytotoxicity against human DU145 cells at 30 uM after 48 hrs by SRB assay; assay type: functional; conditions: DU-145, 48 h, read-out: GI
[20] = system: HEp-2; assay: Cytotoxicity against human Hep2 cells at 30 uM after 48 hrs by SRB assay; assay type: functional; conditions: HEp-2, 48 h, read-out: GI
[21] = system: PC-3; assay: Cytotoxicity against human PC3 cells at 30 uM after 48 hrs by SRB assay; assay type: functional; conditions: PC-3, 48 h, read-out: GI
[22] = system: MCF7; assay: Cytotoxicity against human MCF7 cells at 10 uM after 48 hrs by SRB assay; assay type: functional; conditions: MCF7, 48 h, read-out: GI
[23] = system: SF-295; assay: Cytotoxicity against human SF295 cells at 30 uM after 48 hrs by SRB assay; assay type: functional; conditions: SF-295, 48 h, read-out: GI
[24] = system: A549; assay: Cytotoxicity against human A549 cells after 48 hrs by SRB assay; assay type: functional, cell-based; conditions: A549, 48 h
[25] = system: HCT-15; assay: Cytotoxicity against human HCT15 cells at 30 uM after 48 hrs by SRB assay; assay type: functional; conditions: HCT-15, 48 h, read-out: GI
[26] = system: HEp-2; assay: Cytotoxicity against human Hep2 cells at 50 uM after 48 hrs by SRB assay; assay type: functional; conditions: HEp-2, 48 h, read-out: GI
[27] = system: SF-295; assay: Cytotoxicity against human SF295 cells at 50 uM after 48 hrs by SRB assay; assay type: functional; conditions: SF-295, 48 h, read-out: GI
[28] = system: THP-1; assay: Cytotoxicity against human THP1 cells after 48 hrs by SRB assay; assay type: functional, cell-based; conditions: THP-1, 48 h
[29] = system: SF-295; assay: Cytotoxicity against human SF295 cells at 10 uM after 48 hrs by SRB assay; assay type: functional; conditions: SF-295, 48 h, read-out: GI
[30] = system: PC-3; assay: Cytotoxicity against human PC3 cells after 48 hrs by SRB assay; assay type: functional, cell-based; conditions: PC-3, 48 h
[31] = system: HEp-2; assay: Cytotoxicity against human Hep2 cells at 10 uM after 48 hrs by SRB assay; assay type: functional; conditions: HEp-2, 48 h, read-out: GI
[32] = system: HEp-2; assay: Cytotoxicity against human Hep2 cells after 48 hrs by SRB assay; assay type: functional, cell-based; conditions: HEp-2, 48 h
[33] = system: HL-60; assay: Cytotoxicity against human HL60 cells at 50 uM after 48 hrs by SRB assay; assay type: functional; conditions: HL-60, 48 h, read-out: GI
[34] = system: THP-1; assay: Cytotoxicity against human THP1 cells at 50 uM after 48 hrs by SRB assay; assay type: functional; conditions: THP-1, 48 h, read-out: GI
[35] = system: MCF7; assay: Cytotoxicity against human MCF7 cells at 50 uM after 48 hrs by SRB assay; assay type: functional; conditions: MCF7, 48 h, read-out: GI
[36] = system: A549; assay: Cytotoxicity against human A549 cells at 30 uM after 48 hrs by SRB assay; assay type: functional; conditions: A549, 48 h, read-out: GI

| SMILES | inhibition of growth at 50 µM [1] [%] | inhibition of growth at 10 µM [2] [%] | inhibition of growth at 50 µM [3] [%] | inhibition of growth at 10 µM [4] [%] | IC50 [5] [µM] | IC50 [6] [µM] | inhibition of growth at 30 µM [7] [%] | inhibition of growth at 10 µM [8] [%] | inhibition of growth at 30 µM [9] [%] | inhibition of growth at 50 µM [10] [%] | IC50 [11] [µM] | IC50 [12] [µM] | inhibition of growth at 10 µM [13] [%] | inhibition of growth at 50 µM [14] [%] | inhibition of growth at 10 µM [15] [%] | inhibition of growth at 10 µM [16] [%] | inhibition of growth at 30 µM [17] [%] | IC50 [18] [µM] | inhibition of growth at 30 µM [19] [%] | inhibition of growth at 30 µM [20] [%] | further results |
| --- | --- | --- | --- | --- | --- | --- | --- | --- | --- | --- | --- | --- | --- | --- | --- | --- | --- | --- | --- | --- | --- |
| C=C(C)[C@@H]1CC[C@]2(C(=O)O)CC[C@]3(C)[C@H](CC[C@@H]4[C@@]5(C)CC[C@H](OCc6cn(-c7ccc(C#N)cc7)nn6)C(C)(C)[C@@H]5CC[C@]43C)[C@@H]12 | 20 | 15 | 36 | 14 | 48 | > 50 | 32 | 22 | 40 | 39 | > 50 | 49 | 1 | 42 | 3 | 21 | 44 | 32 | 15 | 49 | inhibition of growth at 30 µM [21]: 5%; inhibition of growth at 10 µM [22]: 5%; inhibition of growth at 30 µM [23]: 18%; IC50 [24]: > 50 µM; inhibition of growth at 30 µM [25]: 80%; inhibition of growth at 50 µM [26]: 60%; inhibition of growth at 50 µM [27]: 54%; IC50 [28]: > 50 µM; inhibition of growth at 10 µM [29]: 5%; IC50 [30]: > 50 µM; inhibition of growth at 10 µM [31]: 1%; IC50 [32]: 32 µM; inhibition of growth at 50 µM [33]: 48%; inhibition of growth at 50 µM [34]: 47%; inhibition of growth at 50 µM [35]: 51%; inhibition of growth at 30 µM [36]: 28% |
| C=C(C)[C@@H]1CC[C@]2(C(=O)O)CC[C@]3(C)[C@H](CC[C@@H]4[C@@]5(C)CC[C@H](OCc6cn(-c7ccc(CC#N)cc7)nn6)C(C)(C)[C@@H]5CC[C@]43C)[C@@H]12 | 68 | 46 | 60 | 17 | 13 | 46 | 98 | 32 | 96 | 56 | 23 | 12 | 30 | 64 | 42 | 43 | 95 | 11 | 61 | 69 | inhibition of growth at 30 µM [21]: 48%; inhibition of growth at 10 µM [22]: 42%; inhibition of growth at 30 µM [23]: 81%; IC50 [24]: 25 µM; inhibition of growth at 30 µM [25]: 27%; inhibition of growth at 50 µM [26]: 71%; inhibition of growth at 50 µM [27]: 83%; IC50 [28]: 12 µM; inhibition of growth at 10 µM [29]: 44%; IC50 [30]: 32 µM; inhibition of growth at 10 µM [31]: 45%; IC50 [32]: 13 µM; inhibition of growth at 50 µM [33]: 98%; inhibition of growth at 50 µM [34]: 96%; inhibition of growth at 50 µM [35]: 99%; inhibition of growth at 30 µM [36]: 57% |
| C=C(C)[C@@H]1CC[C@]2(C(=O)O)CC[C@]3(C)[C@H](CC[C@@H]4[C@@]5(C)CC[C@H](OCc6cn(C7O[C@H](COC(C)=O)[C@H](OC(C)=O)[C@H](OC(C)=O)[C@H]7OC(C)=O)nn6)C(C)(C)[C@@H]5CC[C@]43C)[C@@H]12 (stereo not given in full) | 36 | 62 | 37 | 39 | > 50 | 28 | 44 | 6 | 66 | 63 | > 50 | 45 | 8 | 40 | 5 | 50 | 61 | 5.5 | 20 | 41 | inhibition of growth at 30 µM [21]: 32%; inhibition of growth at 10 µM [22]: 35%; inhibition of growth at 30 µM [23]: 20%; IC50 [24]: > 50 µM; inhibition of growth at 30 µM [25]: 51%; inhibition of growth at 50 µM [26]: 58%; inhibition of growth at 50 µM [27]: 39%; IC50 [28]: 50 µM; inhibition of growth at 10 µM [29]: 8%; IC50 [30]: > 50 µM; inhibition of growth at 10 µM [31]: 25%; IC50 [32]: 40 µM; inhibition of growth at 50 µM [33]: 74%; inhibition of growth at 50 µM [34]: 72%; inhibition of growth at 50 µM [35]: 52%; inhibition of growth at 30 µM [36]: 10% |
| C=C(C)[C@@H]1CC[C@]2(C(=O)O)CC[C@]3(C)[C@H](CC[C@@H]4[C@@]5(C)CC[C@H](OCc6cn(-c7cc(I)ccc7C)nn6)C(C)(C)[C@@H]5CC[C@]43C)[C@@H]12 | 65 | 40 | 67 | 9 | > 50 | > 50 | 54 | 43 | 60 | 34 | 39 | 27 | 24 | 4 | 5 | 38 | 56 | 18 | 41 | 14 | inhibition of growth at 30 µM [21]: 22%; inhibition of growth at 10 µM [22]: 30%; inhibition of growth at 30 µM [23]: 20%; IC50 [24]: 23 µM; inhibition of growth at 30 µM [25]: 25%; inhibition of growth at 50 µM [26]: 25%; inhibition of growth at 50 µM [27]: 35%; IC50 [28]: 22 µM; inhibition of growth at 10 µM [29]: 8%; IC50 [30]: > 50 µM; inhibition of growth at 10 µM [31]: 7%; IC50 [32]: > 50 µM; inhibition of growth at 50 µM [33]: 97%; inhibition of growth at 50 µM [34]: 96%; inhibition of growth at 50 µM [35]: 74%; inhibition of growth at 30 µM [36]: 53% |
| C=C(C)[C@@H]1CC[C@]2(C(=O)O)CC[C@]3(C)[C@H](CC[C@@H]4[C@@]5(C)CC[C@H](OCc6cn(-c7ccc8c(c7)OCO8)nn6)C(C)(C)[C@@H]5CC[C@]43C)[C@@H]12 | 91 | 41 | 40 | 22 | 18 | 50 | 68 | 22 | 50 | 50 | 30 | 13 | 10 | 61 | 2 | 33 | 46 | 30 | 50 | 56 | inhibition of growth at 30 µM [21]: 32%; inhibition of growth at 10 µM [22]: 47%; inhibition of growth at 30 µM [23]: 55%; IC50 [24]: > 50 µM; inhibition of growth at 30 µM [25]: 36%; inhibition of growth at 50 µM [26]: 67%; inhibition of growth at 50 µM [27]: 65%; IC50 [28]: 34 µM; inhibition of growth at 10 µM [29]: 36%; IC50 [30]: 43 µM; inhibition of growth at 10 µM [31]: 9%; IC50 [32]: 26 µM; inhibition of growth at 50 µM [33]: 61%; inhibition of growth at 50 µM [34]: 52%; inhibition of growth at 50 µM [35]: 82%; inhibition of growth at 30 µM [36]: 40% |
